Five compounds from doi:10.1101/2023.03.24.534094v2 (biorxiv, 2023) can be followed below.

Read-outs that look alike come from different tables or passages of the source.

Among the targets are LOK (Homo sapiens, UniProt O94804); BRD4 (Homo sapiens, UniProt O60885); NDR2 (Homo sapiens, UniProt Q9Y2H1); CaMK2d (Homo sapiens, UniProt Q13557); CaMK1g (Homo sapiens, UniProt Q96NX5); BIKE (Homo sapiens, UniProt Q9NSY1); HIPK2 (Homo sapiens, UniProt Q9H2X6).
Holding throughout (test): biochemical
In another assay the target is T1, GAK (Homo sapiens, UniProt O14976).
T1 sequence (O14976 1-1311): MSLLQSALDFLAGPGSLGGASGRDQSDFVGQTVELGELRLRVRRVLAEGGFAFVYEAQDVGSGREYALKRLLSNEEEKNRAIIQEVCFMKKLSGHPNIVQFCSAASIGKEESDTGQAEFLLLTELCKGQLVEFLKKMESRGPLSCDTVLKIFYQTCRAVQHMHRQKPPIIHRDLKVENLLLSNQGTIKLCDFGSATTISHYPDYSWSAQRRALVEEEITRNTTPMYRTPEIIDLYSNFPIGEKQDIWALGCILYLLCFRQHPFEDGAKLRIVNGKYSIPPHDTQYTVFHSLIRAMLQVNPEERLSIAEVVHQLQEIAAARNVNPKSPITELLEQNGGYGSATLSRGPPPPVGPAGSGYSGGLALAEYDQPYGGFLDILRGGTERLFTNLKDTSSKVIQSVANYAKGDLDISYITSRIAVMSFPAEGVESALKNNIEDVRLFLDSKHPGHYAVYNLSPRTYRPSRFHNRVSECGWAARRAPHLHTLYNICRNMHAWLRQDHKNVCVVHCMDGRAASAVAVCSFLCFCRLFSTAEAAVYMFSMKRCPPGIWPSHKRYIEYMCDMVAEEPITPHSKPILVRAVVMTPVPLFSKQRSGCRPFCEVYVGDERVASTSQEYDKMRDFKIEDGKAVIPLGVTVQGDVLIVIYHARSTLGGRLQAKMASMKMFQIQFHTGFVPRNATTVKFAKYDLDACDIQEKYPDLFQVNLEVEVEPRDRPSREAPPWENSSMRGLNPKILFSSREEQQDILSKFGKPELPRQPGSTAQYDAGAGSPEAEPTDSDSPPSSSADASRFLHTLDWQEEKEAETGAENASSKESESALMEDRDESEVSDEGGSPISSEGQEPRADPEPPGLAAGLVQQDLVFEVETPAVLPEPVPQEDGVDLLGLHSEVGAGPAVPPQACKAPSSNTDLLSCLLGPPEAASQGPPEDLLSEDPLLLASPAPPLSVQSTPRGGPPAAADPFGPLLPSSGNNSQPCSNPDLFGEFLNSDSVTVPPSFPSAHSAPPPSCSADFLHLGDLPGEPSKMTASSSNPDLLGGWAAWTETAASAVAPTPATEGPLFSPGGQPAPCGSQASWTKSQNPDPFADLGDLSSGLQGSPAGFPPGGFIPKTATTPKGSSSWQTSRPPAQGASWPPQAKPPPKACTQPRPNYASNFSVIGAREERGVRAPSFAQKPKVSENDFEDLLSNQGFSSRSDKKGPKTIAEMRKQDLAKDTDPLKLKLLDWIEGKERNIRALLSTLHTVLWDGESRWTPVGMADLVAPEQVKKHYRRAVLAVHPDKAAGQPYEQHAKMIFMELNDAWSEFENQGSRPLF

Chain of CaMK2d (Q13557 whole entry): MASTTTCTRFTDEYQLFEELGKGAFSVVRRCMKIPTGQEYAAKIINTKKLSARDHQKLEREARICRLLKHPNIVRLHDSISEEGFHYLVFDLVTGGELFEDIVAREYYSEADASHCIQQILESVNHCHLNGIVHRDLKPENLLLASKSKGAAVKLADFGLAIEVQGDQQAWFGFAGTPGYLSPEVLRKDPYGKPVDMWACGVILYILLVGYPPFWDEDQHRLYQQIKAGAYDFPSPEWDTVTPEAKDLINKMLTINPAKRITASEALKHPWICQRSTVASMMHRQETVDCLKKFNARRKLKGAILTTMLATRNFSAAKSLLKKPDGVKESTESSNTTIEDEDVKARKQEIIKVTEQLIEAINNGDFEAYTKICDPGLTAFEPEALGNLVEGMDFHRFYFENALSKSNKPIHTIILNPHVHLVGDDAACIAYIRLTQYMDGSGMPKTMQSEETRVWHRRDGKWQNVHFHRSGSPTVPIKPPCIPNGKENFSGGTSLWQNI
Chain of BIKE (Q9NSY1 whole entry): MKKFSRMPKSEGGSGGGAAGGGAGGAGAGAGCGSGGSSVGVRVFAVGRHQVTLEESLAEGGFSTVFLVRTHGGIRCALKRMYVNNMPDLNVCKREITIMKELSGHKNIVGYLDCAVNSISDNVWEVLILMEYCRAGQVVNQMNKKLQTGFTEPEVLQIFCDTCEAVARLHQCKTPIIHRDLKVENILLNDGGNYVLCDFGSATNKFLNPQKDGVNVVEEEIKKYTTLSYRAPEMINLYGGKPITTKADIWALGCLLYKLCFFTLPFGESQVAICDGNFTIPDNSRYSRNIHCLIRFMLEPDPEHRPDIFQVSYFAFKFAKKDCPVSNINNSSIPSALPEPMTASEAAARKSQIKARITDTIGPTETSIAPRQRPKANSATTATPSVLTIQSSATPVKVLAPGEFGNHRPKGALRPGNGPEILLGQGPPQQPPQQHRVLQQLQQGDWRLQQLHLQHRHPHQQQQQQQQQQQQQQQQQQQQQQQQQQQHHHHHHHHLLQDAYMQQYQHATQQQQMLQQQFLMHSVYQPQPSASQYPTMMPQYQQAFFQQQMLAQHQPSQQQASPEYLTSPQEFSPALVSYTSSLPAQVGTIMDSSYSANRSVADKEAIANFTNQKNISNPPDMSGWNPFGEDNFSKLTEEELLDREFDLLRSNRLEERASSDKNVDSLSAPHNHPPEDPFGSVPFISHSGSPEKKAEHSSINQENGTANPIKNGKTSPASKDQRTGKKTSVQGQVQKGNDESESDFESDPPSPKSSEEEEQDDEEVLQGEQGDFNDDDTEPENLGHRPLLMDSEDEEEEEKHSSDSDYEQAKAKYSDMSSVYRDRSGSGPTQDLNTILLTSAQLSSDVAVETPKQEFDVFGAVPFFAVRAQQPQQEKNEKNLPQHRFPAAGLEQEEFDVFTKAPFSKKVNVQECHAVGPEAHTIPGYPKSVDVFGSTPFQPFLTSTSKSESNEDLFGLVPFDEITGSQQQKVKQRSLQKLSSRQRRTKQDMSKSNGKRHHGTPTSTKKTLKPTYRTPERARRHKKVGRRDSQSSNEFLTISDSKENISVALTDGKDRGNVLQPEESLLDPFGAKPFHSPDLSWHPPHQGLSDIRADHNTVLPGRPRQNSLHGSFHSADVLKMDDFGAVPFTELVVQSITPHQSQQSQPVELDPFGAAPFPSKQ
Chain of LOK (O94804 whole entry): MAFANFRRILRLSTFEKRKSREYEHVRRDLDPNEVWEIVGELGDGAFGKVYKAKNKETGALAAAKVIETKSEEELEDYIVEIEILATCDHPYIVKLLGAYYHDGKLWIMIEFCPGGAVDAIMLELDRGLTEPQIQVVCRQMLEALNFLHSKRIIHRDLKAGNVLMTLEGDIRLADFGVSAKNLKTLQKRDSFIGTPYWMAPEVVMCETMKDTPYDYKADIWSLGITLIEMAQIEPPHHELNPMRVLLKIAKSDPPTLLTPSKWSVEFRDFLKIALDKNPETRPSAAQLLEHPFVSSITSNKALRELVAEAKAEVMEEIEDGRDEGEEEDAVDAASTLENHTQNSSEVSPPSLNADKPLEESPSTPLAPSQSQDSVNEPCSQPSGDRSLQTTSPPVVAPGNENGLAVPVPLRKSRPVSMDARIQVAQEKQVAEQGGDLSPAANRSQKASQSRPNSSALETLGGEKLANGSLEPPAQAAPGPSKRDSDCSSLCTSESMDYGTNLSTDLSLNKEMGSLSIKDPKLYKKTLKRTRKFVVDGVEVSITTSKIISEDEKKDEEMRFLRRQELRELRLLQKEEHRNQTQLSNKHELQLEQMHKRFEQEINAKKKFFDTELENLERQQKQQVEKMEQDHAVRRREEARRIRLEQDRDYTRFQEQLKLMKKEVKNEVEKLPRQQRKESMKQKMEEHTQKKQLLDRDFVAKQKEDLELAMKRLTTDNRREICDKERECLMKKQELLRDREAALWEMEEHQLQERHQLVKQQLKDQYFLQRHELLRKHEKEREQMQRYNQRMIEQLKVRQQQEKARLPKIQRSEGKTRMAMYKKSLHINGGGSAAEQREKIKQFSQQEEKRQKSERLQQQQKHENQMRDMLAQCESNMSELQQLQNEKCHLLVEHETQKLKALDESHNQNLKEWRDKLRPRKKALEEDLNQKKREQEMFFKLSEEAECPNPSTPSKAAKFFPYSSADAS
Chain of NDR2 (Q9Y2H1 whole entry): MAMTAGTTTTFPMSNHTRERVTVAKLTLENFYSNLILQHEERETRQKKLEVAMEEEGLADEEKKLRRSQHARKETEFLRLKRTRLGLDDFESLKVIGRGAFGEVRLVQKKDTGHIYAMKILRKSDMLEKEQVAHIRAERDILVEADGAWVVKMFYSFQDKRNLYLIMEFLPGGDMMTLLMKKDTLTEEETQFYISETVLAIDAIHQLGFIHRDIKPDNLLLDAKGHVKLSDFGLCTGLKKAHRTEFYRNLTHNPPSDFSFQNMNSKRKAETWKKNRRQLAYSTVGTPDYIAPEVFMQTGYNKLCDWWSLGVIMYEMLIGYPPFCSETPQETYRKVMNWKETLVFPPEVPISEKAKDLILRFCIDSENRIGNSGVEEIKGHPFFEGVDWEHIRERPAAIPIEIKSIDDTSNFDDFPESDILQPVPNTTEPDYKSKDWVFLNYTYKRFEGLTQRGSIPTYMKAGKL
Chain of HIPK2 (Q9H2X6 whole entry): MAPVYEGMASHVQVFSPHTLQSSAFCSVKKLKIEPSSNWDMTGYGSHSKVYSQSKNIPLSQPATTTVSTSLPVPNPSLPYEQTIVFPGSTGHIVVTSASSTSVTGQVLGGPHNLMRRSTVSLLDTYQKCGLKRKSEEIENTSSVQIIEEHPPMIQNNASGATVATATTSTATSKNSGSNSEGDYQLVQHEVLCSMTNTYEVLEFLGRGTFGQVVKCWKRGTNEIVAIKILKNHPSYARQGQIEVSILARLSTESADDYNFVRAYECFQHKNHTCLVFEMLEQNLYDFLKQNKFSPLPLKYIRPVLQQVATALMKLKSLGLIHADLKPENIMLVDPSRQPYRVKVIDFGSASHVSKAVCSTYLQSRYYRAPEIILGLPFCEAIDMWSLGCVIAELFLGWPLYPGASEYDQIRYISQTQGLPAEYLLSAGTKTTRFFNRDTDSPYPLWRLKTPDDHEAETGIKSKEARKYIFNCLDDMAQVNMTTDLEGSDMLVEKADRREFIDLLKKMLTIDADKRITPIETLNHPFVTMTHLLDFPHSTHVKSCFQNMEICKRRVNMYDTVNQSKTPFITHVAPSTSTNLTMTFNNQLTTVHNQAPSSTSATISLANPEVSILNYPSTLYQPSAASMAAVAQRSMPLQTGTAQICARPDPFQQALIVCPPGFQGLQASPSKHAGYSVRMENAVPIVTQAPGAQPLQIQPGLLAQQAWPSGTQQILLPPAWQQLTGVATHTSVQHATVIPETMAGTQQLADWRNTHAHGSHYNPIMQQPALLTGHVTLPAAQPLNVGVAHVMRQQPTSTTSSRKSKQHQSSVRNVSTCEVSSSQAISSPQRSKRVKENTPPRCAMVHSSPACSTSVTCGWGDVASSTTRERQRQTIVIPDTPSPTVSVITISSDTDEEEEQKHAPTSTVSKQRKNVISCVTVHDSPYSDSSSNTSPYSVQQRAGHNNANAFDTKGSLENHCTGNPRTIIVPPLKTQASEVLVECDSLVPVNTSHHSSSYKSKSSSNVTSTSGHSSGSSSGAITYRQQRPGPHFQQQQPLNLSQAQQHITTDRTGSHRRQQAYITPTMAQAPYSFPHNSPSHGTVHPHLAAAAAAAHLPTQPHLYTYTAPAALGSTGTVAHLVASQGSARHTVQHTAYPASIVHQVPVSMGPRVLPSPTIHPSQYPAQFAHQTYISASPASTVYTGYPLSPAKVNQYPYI
Chain of CaMK1g (Q96NX5 whole entry): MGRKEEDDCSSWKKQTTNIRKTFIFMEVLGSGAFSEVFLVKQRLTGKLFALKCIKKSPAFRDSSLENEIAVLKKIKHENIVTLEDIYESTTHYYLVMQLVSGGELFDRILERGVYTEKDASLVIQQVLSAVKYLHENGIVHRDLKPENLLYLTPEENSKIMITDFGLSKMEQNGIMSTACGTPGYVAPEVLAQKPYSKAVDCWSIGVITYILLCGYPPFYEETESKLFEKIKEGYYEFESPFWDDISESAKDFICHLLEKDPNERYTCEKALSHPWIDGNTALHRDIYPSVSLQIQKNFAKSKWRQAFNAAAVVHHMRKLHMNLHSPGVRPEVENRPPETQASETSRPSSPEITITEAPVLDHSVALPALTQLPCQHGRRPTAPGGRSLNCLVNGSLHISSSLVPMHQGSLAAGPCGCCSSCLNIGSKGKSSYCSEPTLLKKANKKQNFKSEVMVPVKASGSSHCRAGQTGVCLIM

For the compound `CNc1ncc2cc(-c3ccc(-c4cccc(C)n4)cc3Cl)c(=O)n(CC3OCC(N)CO3)c2n1` (stereo not drawn) [compound 2, G-5555], the “dTm G-5555 (2)” value at LOK (10 µM, binder) is 10.2 °C; on BRD4 (10 µM, binder), -1.1 °C; at NDR2 (10 µM, binder), 3.5 °C; at CaMK2d (10 µM, binder) it was -0.1 °C; on CaMK1g (10 µM, binder), 2.3 °C; on BIKE (10 µM, binder), 2.5 °C. On GAK (10 µM, binder), the “dTm G-5555 (2)” value turned out to be 6.1 °C.
As to `CNc1ncc2cc(-c3ccccc3Cl)c(=O)n(CCCCN)c2n1` [compound 4, 8-(4-Aminobutyl)-6-(2-chlorophenyl)-2-(methylamino)pyrido[2,3-d]pyrimidin-7(8H)-one], the ΔTm at 10 µM on LOK (read-out: dTm MR21 (4)) is 5.4 °C; at BRD4 (read-out: dTm MR21 (4)), 0.1 °C; on NDR2 (read-out: dTm MR21 (4)) it was 0.5 °C; at CaMK2d (read-out: dTm MR21 (4)), 0 °C; on CaMK1g (read-out: dTm MR21 (4)) it was -0.1 °C; on HIPK2 (read-out: dTm MR21 (4)) it was 0.1 °C. Moreover, the ΔTm at 10 µM was found to be 3.1 °C on BIKE (read-out: dTm MR21 (4)) and 6.6 °C on GAK (read-out: dTm MR21 (4)).
Regarding `CNc1ncc2cc(-c3cc(Br)ccc3Cl)c(=O)n(C[C@H]3OC[C@H](N)CO3)c2n1` [compound 7, 8-(((2r,5r)-5-Amino-1,3-dioxan-2-yl)methyl)-6-(5-bromo-2-chlorophenyl)-2-(methylamino)pyrido[2,3-d]pyrimidin-7(8H)-one], the ΔTm at 10 µM at LOK (read-out: dTm 7) was 2.1 °C; at BRD4 (read-out: dTm 7), 0.9 °C; on NDR2 (read-out: dTm 7), -0.1 °C; at CaMK2d (read-out: dTm 7) it was 0.4 °C; at CaMK1g (read-out: dTm 7) it was 0.3 °C; at HIPK2 (read-out: dTm 7), 0.5 °C. Besides, the ΔTm at 10 µM on BIKE (read-out: dTm 7) is 0.7 °C; at GAK (read-out: dTm 7), 2.6 °C.
In the case of `CNc1ncc2cc(-c3cc(Br)ccc3Cl)c(=O)n(CCCCN)c2n1` [compound 6, 8-(4-Aminobutyl)-6-(5-bromo-2-chlorophenyl)-2-(methylamino)pyrido[2,3-d]pyrimidin-7(8H)-one], the ΔTm at 10 µM is 2.4 °C on LOK (read-out: dTm 6); -0.1 °C at BRD4 (read-out: dTm 6); 0.7 °C on NDR2 (read-out: dTm 6); 0 °C on CaMK2d (read-out: dTm 6); 1.2 °C on CaMK1g (read-out: dTm 6); 0.2 °C at HIPK2 (read-out: dTm 6). The ΔTm at 10 µM at BIKE (read-out: dTm 6) was determined as 0.6 °C; at GAK (read-out: dTm 6) it was 4.1 °C.
For `CNc1ncc2cc(-c3cc(F)ccc3F)c(=O)n(CCCCN)c2n1` [compound 5, 8-(4-Aminobutyl)-6-(2,5-difluorophenyl)-2-(methylamino)pyrido[2,3-d]pyrimidin-7(8H)-one], the ΔTm at 10 µM on LOK (read-out: dTm MR22 (5)) was -0.4 °C; on BRD4 (read-out: dTm MR22 (5)), -2.8 °C; at NDR2 (read-out: dTm MR22 (5)), 1.6 °C; on CaMK2d (read-out: dTm MR22 (5)), -0.6 °C; on CaMK1g (read-out: dTm MR22 (5)) it was -0.4 °C; at HIPK2 (read-out: dTm MR22 (5)) it was 0.1 °C. Moreover, the ΔTm at 10 µM at BIKE (read-out: dTm MR22 (5)) was 2.1 °C; at GAK (read-out: dTm MR22 (5)) it was 5.4 °C.
